Data from PubChem BioAssay (NCI).
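All cell lines were grown in 96-well plates and treated with compound for 48 hours. TGI marks complete inhibition of growth.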

Experiments:
Experiment in all cases: NCI anticancer screen, dose series, 48 h
RPMI-8226 leukemia = test system: RPMI-8226 leukemia
UO-31 renal = test system: UO-31 renal
KM12 colon = test system: KM12 colon
SN12C renal = test system: SN12C renal
BT-549 breast = test system: BT-549 breast
SK-OV-3 ovarian = test system: SK-OV-3 ovarian
DU-145 prostate = test system: DU-145 prostate
M14 melanoma = test system: M14 melanoma
SF-268 CNS = test system: SF-268 CNS
IGROV1 ovarian = test system: IGROV1 ovarian
EKVX NSCLC = test system: EKVX NSCLC
786-0 renal = test system: 786-0 renal
SF-539 CNS = test system: SF-539 CNS
COLO 205 colon = test system: COLO 205 colon
LOX IMVI melanoma = test system: LOX IMVI melanoma
SK-MEL-28 melanoma = test system: SK-MEL-28 melanoma
A549 NSCLC = test system: A549 NSCLC
OVCAR-4 ovarian = test system: OVCAR-4 ovarian
A498 renal = test system: A498 renal
NCI/ADR-RES ovarian = test system: NCI/ADR-RES ovarian
CAKI-1 renal = test system: CAKI-1 renal
MALME-3M melanoma = test system: MALME-3M melanoma
SNB-19 CNS = test system: SNB-19 CNS
OVCAR-5 ovarian = test system: OVCAR-5 ovarian
ACHN renal = test system: ACHN renal
MOLT-4 leukemia = test system: MOLT-4 leukemia
NCI-H23 lung = test system: NCI-H23 lung
HCT-15 colon = test system: HCT-15 colon
RXF 393 renal = test system: RXF 393 renal
OVCAR-3 ovarian = test system: OVCAR-3 ovarian
U251 CNS = test system: U251 CNS
HT29 colon = test system: HT29 colon
MDA-N = test system: MDA-N
HOP-92 NSCLC = test system: HOP-92 NSCLC
SK-MEL-5 melanoma = test system: SK-MEL-5 melanoma
SNB-75 CNS = test system: SNB-75 CNS
NCI-H226 lung = test system: NCI-H226 lung
T-47D breast = test system: T-47D breast
MDA-MB-231 breast = test system: MDA-MB-231 breast
HCT-116 colon = test system: HCT-116 colon
SF-295 CNS = test system: SF-295 CNS
NCI-H460 lung = test system: NCI-H460 lung
HOP-62 NSCLC = test system: HOP-62 NSCLC
UACC-257 melanoma = test system: UACC-257 melanoma
SW-620 colon = test system: SW-620 colon
OVCAR-8 ovarian = test system: OVCAR-8 ovarian
NCI-H522 lung = test system: NCI-H522 lung
MDA-MB-435 = test system: MDA-MB-435
TK-10 renal = test system: TK-10 renal
UACC-62 melanoma = test system: UACC-62 melanoma
K-562 leukemia = test system: K-562 leukemia
SK-MEL-2 melanoma = test system: SK-MEL-2 melanoma
CCRF-CEM leukemia = test system: CCRF-CEM leukemia
MCF7 breast = test system: MCF7 breast
SR leukemia = test system: SR leukemia
PC-3 prostate = test system: PC-3 prostate
HS 578T breast = test system: HS 578T breast
HCC-2998 colon = test system: HCC-2998 colon

CSc1ncc2c(n1)C(C#N)C1Sc3ccccc3N1C2=O (stereo not given)
TGI (RPMI-8226 leukemia): > 100 µM | TGI (UO-31 renal): > 100 µM | TGI (KM12 colon): > 100 µM | TGI (SN12C renal): > 100 µM | TGI (BT-549 breast): > 100 µM | TGI (SK-OV-3 ovarian): > 100 µM | TGI (DU-145 prostate): > 100 µM | TGI (M14 melanoma): > 100 µM | TGI (SF-268 CNS): > 100 µM | TGI (IGROV1 ovarian): > 100 µM | TGI (EKVX NSCLC): > 100 µM | TGI (786-0 renal): > 100 µM | TGI (SF-539 CNS): > 100 µM | TGI (COLO 205 colon): > 100 µM | TGI (LOX IMVI melanoma): > 100 µM | TGI (SK-MEL-28 melanoma): > 100 µM | TGI (A549 NSCLC): > 100 µM | TGI (OVCAR-4 ovarian): > 100 µM | TGI (A498 renal): > 100 µM | TGI (NCI/ADR-RES ovarian): > 100 µM | TGI (CAKI-1 renal): > 100 µM | TGI (MALME-3M melanoma): > 100 µM | TGI (SNB-19 CNS): > 100 µM | TGI (OVCAR-5 ovarian): > 100 µM | TGI (ACHN renal): > 100 µM | TGI (MOLT-4 leukemia): > 100 µM | TGI (NCI-H23 lung): > 100 µM | TGI (HCT-15 colon): > 100 µM | TGI (RXF 393 renal): > 100 µM | TGI (OVCAR-3 ovarian): > 100 µM | TGI (U251 CNS): > 100 µM | TGI (HT29 colon): > 100 µM | TGI (MDA-N): > 100 µM | TGI (HOP-92 NSCLC): > 100 µM | TGI (SK-MEL-5 melanoma): > 100 µM | TGI (SNB-75 CNS): 66.3 µM | TGI (NCI-H226 lung): > 100 µM | TGI (T-47D breast): > 100 µM | TGI (MDA-MB-231 breast): > 100 µM | TGI (HCT-116 colon): > 100 µM | TGI (SF-295 CNS): > 100 µM | TGI (NCI-H460 lung): > 100 µM | TGI (HOP-62 NSCLC): > 100 µM | TGI (UACC-257 melanoma): > 100 µM | TGI (SW-620 colon): > 100 µM | TGI (OVCAR-8 ovarian): > 100 µM | TGI (NCI-H522 lung): > 100 µM | TGI (MDA-MB-435): > 100 µM | TGI (TK-10 renal): > 100 µM

C[C@H](c1ccccc1)N1C(=O)[C@@H](O)[C@H]1[C@H](CO)OCc1ccccc1
TGI (RPMI-8226 leukemia): > 100 µM | TGI (UO-31 renal): > 100 µM | TGI (KM12 colon): > 100 µM | TGI (SN12C renal): > 100 µM | TGI (SK-OV-3 ovarian): > 100 µM | TGI (DU-145 prostate): > 100 µM | TGI (UACC-62 melanoma): > 100 µM | TGI (K-562 leukemia): > 100 µM | TGI (M14 melanoma): > 100 µM | TGI (SF-268 CNS): > 100 µM | TGI (SK-MEL-2 melanoma): > 100 µM | TGI (IGROV1 ovarian): > 100 µM | TGI (EKVX NSCLC): > 100 µM | TGI (786-0 renal): > 100 µM | TGI (CCRF-CEM leukemia): > 100 µM | TGI (COLO 205 colon): > 100 µM | TGI (LOX IMVI melanoma): > 100 µM | TGI (SK-MEL-28 melanoma): > 100 µM | TGI (A549 NSCLC): > 100 µM | TGI (OVCAR-4 ovarian): > 100 µM | TGI (MCF7 breast): > 100 µM | TGI (A498 renal): > 100 µM | TGI (NCI/ADR-RES ovarian): > 100 µM | TGI (SR leukemia): > 100 µM | TGI (MALME-3M melanoma): > 100 µM | TGI (SNB-19 CNS): > 100 µM | TGI (OVCAR-5 ovarian): > 100 µM | TGI (ACHN renal): > 100 µM | TGI (MOLT-4 leukemia): > 100 µM | TGI (NCI-H23 lung): > 100 µM | TGI (HCT-15 colon): > 100 µM | TGI (OVCAR-3 ovarian): > 100 µM | TGI (U251 CNS): > 100 µM | TGI (HT29 colon): > 100 µM | TGI (MDA-N): > 100 µM | TGI (HOP-92 NSCLC): > 100 µM | TGI (SK-MEL-5 melanoma): > 100 µM | TGI (SNB-75 CNS): > 100 µM | TGI (PC-3 prostate): > 100 µM | TGI (NCI-H226 lung): > 100 µM | TGI (MDA-MB-231 breast): > 100 µM | TGI (HCT-116 colon): > 100 µM | TGI (HS 578T breast): > 100 µM | TGI (SF-295 CNS): > 100 µM | TGI (HOP-62 NSCLC): > 100 µM | TGI (UACC-257 melanoma): > 100 µM | TGI (SW-620 colon): > 100 µM | TGI (OVCAR-8 ovarian): > 100 µM | TGI (MDA-MB-435): > 100 µM | TGI (TK-10 renal): > 100 µM

CC(C)(C)c1ccccc1N1C(=O)c2ccc3c4c(ccc(c24)C1=O)N(c1ccccc1C(C)(C)C)C3=O
TGI (RPMI-8226 leukemia): > 100 µM | TGI (UO-31 renal): > 100 µM | TGI (KM12 colon): > 100 µM | TGI (SN12C renal): > 100 µM | TGI (BT-549 breast): > 100 µM | TGI (SK-OV-3 ovarian): > 100 µM | TGI (DU-145 prostate): > 100 µM | TGI (UACC-62 melanoma): > 100 µM | TGI (K-562 leukemia): > 100 µM | TGI (M14 melanoma): > 100 µM | TGI (SF-268 CNS): > 100 µM | TGI (SK-MEL-2 melanoma): > 100 µM | TGI (IGROV1 ovarian): > 100 µM | TGI (EKVX NSCLC): > 100 µM | TGI (786-0 renal): > 100 µM | TGI (SF-539 CNS): > 100 µM | TGI (CCRF-CEM leukemia): > 100 µM | TGI (COLO 205 colon): > 100 µM | TGI (SK-MEL-28 melanoma): > 100 µM | TGI (A549 NSCLC): > 100 µM | TGI (OVCAR-4 ovarian): > 100 µM | TGI (MCF7 breast): > 100 µM | TGI (NCI/ADR-RES ovarian): > 100 µM | TGI (SR leukemia): > 100 µM | TGI (CAKI-1 renal): > 100 µM | TGI (SNB-19 CNS): > 100 µM | TGI (OVCAR-5 ovarian): > 100 µM | TGI (ACHN renal): > 100 µM | TGI (MOLT-4 leukemia): > 100 µM | TGI (NCI-H23 lung): > 100 µM | TGI (HCT-15 colon): > 100 µM | TGI (RXF 393 renal): > 100 µM | TGI (OVCAR-3 ovarian): > 100 µM | TGI (U251 CNS): > 100 µM | TGI (HCC-2998 colon): > 100 µM | TGI (HT29 colon): > 100 µM | TGI (MDA-N): > 100 µM | TGI (HOP-92 NSCLC): > 100 µM | TGI (SK-MEL-5 melanoma): > 100 µM | TGI (PC-3 prostate): > 100 µM | TGI (MDA-MB-231 breast): > 100 µM | TGI (HCT-116 colon): > 100 µM | TGI (HS 578T breast): > 100 µM | TGI (SF-295 CNS): > 100 µM | TGI (NCI-H460 lung): > 100 µM | TGI (HOP-62 NSCLC): > 100 µM | TGI (UACC-257 melanoma): > 100 µM | TGI (SW-620 colon): > 100 µM | TGI (OVCAR-8 ovarian): > 100 µM | TGI (NCI-H522 lung): > 100 µM | TGI (MDA-MB-435): > 100 µM
